Reference: patent publication US11117900B2 (Vertex Pharmaceuticals Incorporated, priority 2012, dated 2021)

System: HCT116 colorectal cancer cells
Assay: Cisplatin sensitization assay (96 h MTS cell viability);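 note: compound concentration needed to lower the IC50 of Cisplatin alone by a set fold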
Type: cell-based
Settings: Cisplatin sensitization value
Summary of the method: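 HCT116 cells were dosed simultaneously with compound and cisplatin as a full matrix of 2-fold serial dilutions from 10 μM top final concentration. Incubation was 96 h at 37° C., 5% CO2, followed by 1 h with MTS reagent for the viability read-out. Sensitization values were binned into +++, ++ and + categories.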

Structure (SMILES)	Cisplatin Sensitization Assay
CN1CCC(c2ccncc2NC(=O)c2c(N)nn3cc(F)cnc23)CC1=O (centres unmarked) [I-C-73, 2-amino-6-fluoro-N-(4-(1-methyl-2-oxopiperidin-4-yl)pyridin-3-yl)pyrazolo[1,5-a]pyrimidine-3-carboxamide]	++ (Compounds with a Cisplatin sensitization value >0.02 μM but <0.2 μM are marked with “++.”)
Cn1ccc2c(NC(=O)c3c(N)nn4cc(F)cnc34)cncc21 [I-C-74, 2-amino-6-fluoro-N-(1-methyl-1H-pyrrolo[2,3-c]pyridin-4-yl)pyrazolo[1,5-a]pyrimidine-3-carboxamide]	+ (Compounds with a Cisplatin sensitization value >0.2 μM but <5 μM are marked with “+.”)
Nc1nn2cc(F)cnc2c1C(=O)Nc1cnccc1C1CCOC1 (centres unmarked) [I-C-75, 2-amino-6-fluoro-N-(4-(tetrahydrofuran-3-yl)pyridin-3-yl)pyrazolo[1,5-a]pyrimidine-3-carboxamide]	++ (Compounds with a Cisplatin sensitization value >0.02 μM but <0.2 μM are marked with “++.”)
Nc1nn2cc(F)cnc2c1C(=O)Nc1cnccc1CN1CCCC1=O [I-C-76, 2-amino-6-fluoro-N-(4-((2-oxopyrrolidin-1-yl)methyl)pyridin-3-yl)pyrazolo[1,5-a]pyrimidine-3-carboxamide]	+ (Compounds with a Cisplatin sensitization value >0.2 μM but <5 μM are marked with “+.”)
Cc1ncc(-c2ccncc2NC(=O)c2c(N)nn3cc(F)cnc23)n1C [I-C-77, 2-amino-N-(4-(1,2-dimethyl-1H-imidazol-5-yl)pyridin-3-yl)-6-fluoropyrazolo[1,5-a]pyrimidine-3-carboxamide]	+++ (Compounds with a Cisplatin sensitization value of <0.02 μM are marked with “+++.”)
Cc1ncn(C)c1-c1ccncc1NC(=O)c1c(N)nn2cc(F)cnc12 [I-C-78, 2-amino-N-(4-(1,4-dimethyl-1H-imidazol-5-yl)pyridin-3-yl)-6-fluoropyrazolo[1,5-a]pyrimidine-3-carboxamide]	++ (Compounds with a Cisplatin sensitization value >0.02 μM but <0.2 μM are marked with “++.”)
Cn1cncc1-c1c(F)cncc1NC(=O)c1c(N)nn2cc(F)cnc12 [I-C-79, 2-amino-6-fluoro-N-(5-fluoro-4-(1-methyl-1H-imidazol-5-yl)pyridin-3-yl)pyrazolo[1,5-a]pyrimidine-3-carboxamide]	+++ (Compounds with a Cisplatin sensitization value of <0.02 μM are marked with “+++.”)
CCn1cncc1-c1ccncc1NC(=O)c1c(N)nn2cc(F)cnc12 [I-C-80, 2-amino-N-(4-(1-ethyl-1H-imidazol-5-yl)pyridin-3-yl)-6-fluoropyrazolo[1,5-a]pyrimidine-3-carboxamide]	+++ (Compounds with a Cisplatin sensitization value of <0.02 μM are marked with “+++.”)
COc1cncc(NC(=O)c2c(N)nn3cc(F)cnc23)c1-c1cncn1C [I-C-81, 2-amino-6-fluoro-N-(5-methoxy-4-(1-methyl-1H-imidazol-5-yl)pyridin-3-yl)pyrazolo[1,5-a]pyrimidine-3-carboxamide]	+++ (Compounds with a Cisplatin sensitization value of <0.02 μM are marked with “+++.”)
COc1cncc(NC(=O)c2c(N)nn3cc(F)cnc23)c1-c1cccnc1 [I-C-82, 2-amino-6-fluoro-N-(5′-methoxy-[3,4′-bipyridin]-3′-yl)pyrazolo[1,5-a]pyrimidine-3-carboxamide]	+++ (Compounds with a Cisplatin sensitization value of <0.02 μM are marked with “+++.”)
COCCn1cncc1-c1ccncc1NC(=O)c1c(N)nn2cc(F)cnc12 [I-C-83, 2-amino-6-fluoro-N-(4-(1-(2-methoxyethyl)-1H-imidazol-5-yl)pyridin-3-yl)pyrazolo[1,5-a]pyrimidine-3-carboxamide]	++ (Compounds with a Cisplatin sensitization value >0.02 μM but <0.2 μM are marked with “++.”)
